According to the kinase profiling compilation of Christmann-Franck et al. (2016):

How the values were obtained:
Experiment in all cases: radiometric filter-binding kinase assay
MAPK15 (human) = MAPK15 (human) (UniProt Q8TD08); settings: compound 1.0 µM; ATP 5 µM
GSK3B (human) = GSK3B (human) (UniProt P49841); settings: compound 1.0 µM; ATP 5 µM
PIM1 (human) = PIM1 (human) (UniProt P11309); settings: compound 1.0 µM; ATP 20 µM
CDK2 CCNA2 (human) = CDK2 CCNA2 (human) (UniProt P24941+P20248); settings: compound 1.0 µM
SRPK1 (human) = SRPK1 (human) (UniProt Q96SB4); settings: compound 1.0 µM; ATP 50 µM
MAPK9 (human) = MAPK9 (human) (UniProt P45984); settings: compound 1.0 µM; ATP 20 µM
PRKAA1 or PRKAA2 (rat) = settings: compound 1.0 µM
[1] = system: SGK1 (human), O00141 [S422D]; settings: compound 1.0 µM; ATP 20 µM
MAPK12 (human) = MAPK12 (human) (UniProt P53778); settings: compound 1.0 µM; ATP 5 µM
PRKCG (human) = PRKCG (human) (UniProt P05129); settings: compound 1.0 µM; ATP 5 µM
PRKCA (human) = PRKCA (human) (UniProt P17252); settings: compound 1.0 µM; ATP 20 µM
AKT2 (human) = AKT2 (human) (UniProt P31751); settings: compound 1.0 µM; ATP 50 µM
MELK (human) = MELK (human) (UniProt Q14680); settings: compound 1.0 µM; ATP 50 µM
RPS6KA5 KD1 KD2 (human) = RPS6KA5 KD1 KD2 (human) (UniProt O75582); settings: compound 1.0 µM; ATP 20 µM
CSK (human) = CSK (human) (UniProt P41240); settings: compound 1.0 µM; ATP 20 µM
RPS6KA1 KD1 KD2 (human) = RPS6KA1 KD1 KD2 (human) (UniProt Q15418); settings: compound 1.0 µM; ATP 50 µM
DYRK1A (human) = DYRK1A (human) (UniProt Q13627); settings: compound 1.0 µM; ATP 50 µM
PIM3 (human) = PIM3 (human) (UniProt Q86V86); settings: compound 1.0 µM; ATP 20 µM
ROCK2 (human) = ROCK2 (human) (UniProt O75116); settings: compound 1.0 µM; ATP 20 µM
HIPK2 (human) = HIPK2 (human) (UniProt Q9H2X6); settings: compound 1.0 µM; ATP 5 µM
AURKB (human) = AURKB (human) (UniProt Q96GD4); settings: compound 1.0 µM; ATP 20 µM
CHEK2 (human) = CHEK2 (human) (UniProt O96017); settings: compound 1.0 µM; ATP 20 µM
MAPKAPK5 (human) = MAPKAPK5 (human) (UniProt Q8IW41); settings: compound 1.0 µM; ATP 20 µM
PIM2 (human) = PIM2 (human) (UniProt Q9P1W9); settings: compound 1.0 µM; ATP 5 µM
CaMK1 (human) = CaMK1 (human) (UniProt Q14012); settings: compound 1.0 µM; ATP 50 µM
NEK7 (human) = NEK7 (human) (UniProt Q8TDX7); settings: compound 1.0 µM; ATP 20 µM
IKBKB (human) = IKBKB (human) (UniProt O14920); settings: compound 1.0 µM; ATP 5 µM
MAPK11 (human) = MAPK11 (human) (UniProt Q15759); settings: compound 1.0 µM; ATP 20 µM
BRSK2 (human) = BRSK2 (human) (UniProt Q8IWQ3); settings: compound 1.0 µM; ATP 50 µM
[2] = system: AKT1 (human), P31749 [S473D]; settings: compound 1.0 µM; ATP 5 µM
PAK7 (human) = PAK7 (human) (UniProt Q9P286); settings: compound 1.0 µM; ATP 20 µM
MAPKAPK2 (human) = MAPKAPK2 (human) (UniProt P49137); settings: compound 1.0 µM; ATP 20 µM
PAK6 (human) = PAK6 (human) (UniProt Q9NQU5); settings: compound 1.0 µM; ATP 20 µM
MAPK3 (human) = MAPK3 (human) (UniProt P27361); settings: compound 1.0 µM; ATP 5 µM
PLK1 (human) = PLK1 (human) (UniProt P53350); settings: compound 1.0 µM; ATP 5 µM
RPS6KA3 KD1 KD2 (human) = RPS6KA3 KD1 KD2 (human) (UniProt P51812); settings: compound 1.0 µM; ATP 50 µM
[3] = system: RPS6KB1 (human), P23443 [T412E]; settings: compound 1.0 µM; ATP 20 µM
CSNK1D (human) = CSNK1D (human) (UniProt P48730); settings: compound 1.0 µM
MKNK1 (human) = MKNK1 (human) (UniProt Q9BUB5); settings: compound 1.0 µM; ATP 50 µM
MAPK14 (human) = MAPK14 (human) (UniProt Q16539); settings: compound 1.0 µM; ATP 50 µM
[4] = accession and sequence are those of the human protein

Chain of CaMK1 (human) (Q14012 whole entry, looked up): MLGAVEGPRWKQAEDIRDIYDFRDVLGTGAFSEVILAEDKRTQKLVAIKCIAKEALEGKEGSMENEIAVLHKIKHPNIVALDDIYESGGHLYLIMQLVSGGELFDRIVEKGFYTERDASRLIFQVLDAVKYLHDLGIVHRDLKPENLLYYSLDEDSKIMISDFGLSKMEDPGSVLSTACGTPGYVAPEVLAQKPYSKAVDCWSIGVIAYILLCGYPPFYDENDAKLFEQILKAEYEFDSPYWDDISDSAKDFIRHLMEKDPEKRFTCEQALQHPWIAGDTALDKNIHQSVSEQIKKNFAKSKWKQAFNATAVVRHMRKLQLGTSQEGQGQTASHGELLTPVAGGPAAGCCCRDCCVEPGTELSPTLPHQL
Chain of MELK (human) (Q14680 whole entry, looked up): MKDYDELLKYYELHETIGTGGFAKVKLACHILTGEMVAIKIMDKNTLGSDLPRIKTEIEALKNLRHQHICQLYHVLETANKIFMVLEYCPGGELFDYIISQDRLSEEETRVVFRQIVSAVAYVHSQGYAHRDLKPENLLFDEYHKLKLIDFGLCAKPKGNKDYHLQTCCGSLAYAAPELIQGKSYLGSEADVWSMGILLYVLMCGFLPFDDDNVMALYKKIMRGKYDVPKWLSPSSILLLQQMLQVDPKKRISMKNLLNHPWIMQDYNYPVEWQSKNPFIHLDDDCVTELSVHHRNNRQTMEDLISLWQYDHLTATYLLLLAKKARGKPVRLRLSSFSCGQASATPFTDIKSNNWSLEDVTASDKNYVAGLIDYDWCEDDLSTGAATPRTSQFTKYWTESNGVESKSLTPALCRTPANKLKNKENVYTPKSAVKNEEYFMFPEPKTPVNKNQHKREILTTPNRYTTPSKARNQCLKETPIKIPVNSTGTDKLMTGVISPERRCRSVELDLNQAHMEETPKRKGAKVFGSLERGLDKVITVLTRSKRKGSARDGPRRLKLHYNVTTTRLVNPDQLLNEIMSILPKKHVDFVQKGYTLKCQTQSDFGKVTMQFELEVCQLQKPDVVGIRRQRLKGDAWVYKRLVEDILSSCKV
Chain of PIM1 (human) (P11309 whole entry, looked up): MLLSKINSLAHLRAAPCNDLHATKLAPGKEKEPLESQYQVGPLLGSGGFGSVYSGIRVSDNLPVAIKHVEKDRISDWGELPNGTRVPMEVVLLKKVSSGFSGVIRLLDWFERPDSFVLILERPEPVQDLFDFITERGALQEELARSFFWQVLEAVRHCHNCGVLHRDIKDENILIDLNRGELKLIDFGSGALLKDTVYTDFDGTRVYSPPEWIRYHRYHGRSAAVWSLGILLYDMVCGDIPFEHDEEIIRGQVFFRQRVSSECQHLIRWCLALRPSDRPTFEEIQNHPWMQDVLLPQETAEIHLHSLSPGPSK
Chain of RPS6KA5 KD1 KD2 (human) (O75582 whole entry, looked up): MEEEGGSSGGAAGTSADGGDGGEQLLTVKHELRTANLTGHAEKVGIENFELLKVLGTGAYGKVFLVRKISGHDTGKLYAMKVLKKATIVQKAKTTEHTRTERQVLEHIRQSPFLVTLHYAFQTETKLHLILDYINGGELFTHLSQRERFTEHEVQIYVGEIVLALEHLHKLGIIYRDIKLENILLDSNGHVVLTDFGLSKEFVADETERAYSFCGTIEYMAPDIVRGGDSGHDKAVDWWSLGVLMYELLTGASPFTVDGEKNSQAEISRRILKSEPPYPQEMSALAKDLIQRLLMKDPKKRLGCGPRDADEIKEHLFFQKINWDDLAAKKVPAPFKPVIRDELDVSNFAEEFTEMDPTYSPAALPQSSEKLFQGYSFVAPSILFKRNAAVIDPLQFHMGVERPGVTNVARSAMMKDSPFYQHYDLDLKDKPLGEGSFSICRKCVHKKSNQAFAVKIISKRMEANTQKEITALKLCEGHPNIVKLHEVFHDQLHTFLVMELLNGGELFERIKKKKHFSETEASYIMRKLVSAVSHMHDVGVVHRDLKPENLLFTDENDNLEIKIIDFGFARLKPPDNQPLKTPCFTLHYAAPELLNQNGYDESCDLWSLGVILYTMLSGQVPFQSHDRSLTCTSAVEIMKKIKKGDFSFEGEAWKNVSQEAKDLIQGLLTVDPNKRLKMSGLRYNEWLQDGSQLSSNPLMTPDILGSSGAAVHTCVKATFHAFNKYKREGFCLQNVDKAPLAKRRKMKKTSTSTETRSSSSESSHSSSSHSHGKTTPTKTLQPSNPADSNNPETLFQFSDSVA
Chain of RPS6KA1 KD1 KD2 (human) (Q15418 whole entry, looked up): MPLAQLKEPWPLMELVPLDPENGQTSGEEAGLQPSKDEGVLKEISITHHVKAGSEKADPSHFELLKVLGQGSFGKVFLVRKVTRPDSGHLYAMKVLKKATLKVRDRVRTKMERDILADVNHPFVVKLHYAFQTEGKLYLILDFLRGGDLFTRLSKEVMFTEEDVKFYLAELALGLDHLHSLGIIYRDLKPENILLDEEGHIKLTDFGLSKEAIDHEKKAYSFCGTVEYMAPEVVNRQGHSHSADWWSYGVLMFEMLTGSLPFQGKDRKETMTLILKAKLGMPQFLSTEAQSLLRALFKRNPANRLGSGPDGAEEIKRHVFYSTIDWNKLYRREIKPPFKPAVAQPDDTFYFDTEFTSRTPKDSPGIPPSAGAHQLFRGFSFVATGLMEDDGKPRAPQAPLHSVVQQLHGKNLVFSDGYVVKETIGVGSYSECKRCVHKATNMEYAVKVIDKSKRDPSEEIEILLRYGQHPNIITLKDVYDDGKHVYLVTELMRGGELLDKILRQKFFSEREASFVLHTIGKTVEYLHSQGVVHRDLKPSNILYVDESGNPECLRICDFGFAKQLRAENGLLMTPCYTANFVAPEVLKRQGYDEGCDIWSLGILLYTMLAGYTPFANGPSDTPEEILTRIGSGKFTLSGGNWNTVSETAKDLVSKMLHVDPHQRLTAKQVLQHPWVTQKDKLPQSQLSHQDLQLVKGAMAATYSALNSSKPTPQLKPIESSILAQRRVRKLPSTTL
Chain of RPS6KA3 KD1 KD2 (human) (P51812 whole entry, looked up): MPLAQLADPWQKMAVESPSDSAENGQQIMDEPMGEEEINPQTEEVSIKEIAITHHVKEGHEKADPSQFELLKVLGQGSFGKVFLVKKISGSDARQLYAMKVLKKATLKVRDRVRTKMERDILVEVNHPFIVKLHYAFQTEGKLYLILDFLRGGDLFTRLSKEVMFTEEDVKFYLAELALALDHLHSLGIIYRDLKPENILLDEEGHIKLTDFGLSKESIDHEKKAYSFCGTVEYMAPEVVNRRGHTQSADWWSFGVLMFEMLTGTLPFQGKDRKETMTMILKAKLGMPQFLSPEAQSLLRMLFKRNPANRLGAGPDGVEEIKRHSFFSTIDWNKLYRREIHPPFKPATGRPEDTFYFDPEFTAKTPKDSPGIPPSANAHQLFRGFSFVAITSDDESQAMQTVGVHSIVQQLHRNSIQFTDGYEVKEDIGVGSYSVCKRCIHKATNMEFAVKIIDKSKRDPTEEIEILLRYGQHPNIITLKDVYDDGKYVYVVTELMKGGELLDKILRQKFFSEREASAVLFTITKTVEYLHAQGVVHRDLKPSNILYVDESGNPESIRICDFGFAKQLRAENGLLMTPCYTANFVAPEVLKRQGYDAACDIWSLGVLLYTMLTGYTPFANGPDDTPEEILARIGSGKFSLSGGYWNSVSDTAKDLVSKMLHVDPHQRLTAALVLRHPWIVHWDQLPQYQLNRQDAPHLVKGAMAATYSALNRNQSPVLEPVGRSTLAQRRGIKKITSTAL
Chain of AURKB (human) (Q96GD4 whole entry, looked up): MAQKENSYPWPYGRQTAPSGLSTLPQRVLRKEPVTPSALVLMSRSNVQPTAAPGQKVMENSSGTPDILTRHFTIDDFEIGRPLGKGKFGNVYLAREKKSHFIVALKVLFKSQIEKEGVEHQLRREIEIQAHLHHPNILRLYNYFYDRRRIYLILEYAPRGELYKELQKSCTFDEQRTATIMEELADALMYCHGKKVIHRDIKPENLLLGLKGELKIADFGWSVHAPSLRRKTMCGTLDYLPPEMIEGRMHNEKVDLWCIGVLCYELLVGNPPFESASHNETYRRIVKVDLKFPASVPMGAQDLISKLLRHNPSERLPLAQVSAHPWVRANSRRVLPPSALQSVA

In the case of `O=C1c2ccccc2-c2n[nH]c3cccc1c23`, the residual activity (MAPK15 (human)) is reported as 43%, the residual activity (GSK3B (human)) is reported as 81% and the residual activity (PIM1 (human)) is reported as 39%. The residual activity (CDK2 CCNA2 (human); ATP 20 µM) was 50%, the residual activity (SRPK1 (human)) was 84% and the residual activity (MAPK9 (human)) was 24%. For the same molecule, the residual activity (PRKAA1 or PRKAA2 (rat); [4]) was 44%, the residual activity [1] was 28% and the residual activity (MAPK12 (human)) was 86%. The residual activity (PRKCG (human)) was 106%, the residual activity (PRKCA (human)) was 68% and the residual activity (AKT2 (human)) was 92%. It also gave a residual activity (MELK (human)) of 15%, a residual activity (RPS6KA5 KD1 KD2 (human)) of 72% and a residual activity (CSK (human)) of 65%. It also gave a residual activity (RPS6KA1 KD1 KD2 (human)) of 55%, a residual activity (DYRK1A (human)) of 40% and a residual activity (PIM3 (human)) of 17%. The residual activity (ROCK2 (human)) was 92%, the residual activity (HIPK2 (human)) was 35% and the residual activity (AURKB (human)) was 15%. The residual activity (CHEK2 (human)) was 44%, the residual activity (MAPKAPK5 (human)) was 58% and the residual activity (PIM2 (human)) was 58%. For the same molecule, the residual activity (CaMK1 (human)) was 73%, the residual activity (NEK7 (human)) was 112% and the residual activity (IKBKB (human)) was 49%. It also gave a residual activity (MAPK11 (human)) of 106%, a residual activity (BRSK2 (human)) of 44% and a residual activity [2] of 97%. The residual activity (PAK7 (human)) was 82%, the residual activity (MAPKAPK2 (human)) was 102% and the residual activity (PAK6 (human)) was 72%. For the same molecule, the residual activity (MAPK3 (human)) was 89%, the residual activity (PLK1 (human)) was 80% and the residual activity (RPS6KA3 KD1 KD2 (human)) was 70%. It also gave a residual activity [3] of 85%, a residual activity (CSNK1D (human); ATP 20 µM) of 15% and a residual activity (MKNK1 (human)) of 67%. It also gave a residual activity (MAPK14 (human)) of 110%.
`COc1ccc2c(c1)=NC1=C(C)NCCC=21` was tested, and the residual activity (MAPK15 (human)) was 44%, the residual activity (GSK3B (human)) was 100% and the residual activity (PIM1 (human)) was 104%. The residual activity (CDK2 CCNA2 (human)) was 100%, the residual activity (SRPK1 (human)) was 89% and the residual activity (MAPK9 (human)) was 86%. It also gave a residual activity (PRKAA1 or PRKAA2 (rat)) of 106%, a residual activity [1] of 85% and a residual activity (MAPK12 (human)) of 120%. For the same molecule, the residual activity (PRKCG (human)) was 84%, the residual activity (PRKCA (human)) was 90% and the residual activity (AKT2 (human)) was 105%. The residual activity (MELK (human)) was 95%, the residual activity (RPS6KA5 KD1 KD2 (human)) was 94% and the residual activity (CSK (human)) was 82%. For the same molecule, the residual activity (RPS6KA1 KD1 KD2 (human)) was 110%, the residual activity (DYRK1A (human)) was 29% and the residual activity (PIM3 (human)) was 90%. It also gave a residual activity (ROCK2 (human)) of 79%, a residual activity (HIPK2 (human)) of 91% and a residual activity (AURKB (human)) of 90%. The residual activity (CHEK2 (human)) was 117%, the residual activity (MAPKAPK5 (human)) was 74% and the residual activity (PIM2 (human)) was 117%. The residual activity (CaMK1 (human)) was 103%, the residual activity (NEK7 (human)) was 107% and the residual activity (IKBKB (human)) was 94%. The residual activity (MAPK11 (human)) was 92%, the residual activity (BRSK2 (human)) was 103% and the residual activity [2] was 95%. For the same molecule, the residual activity (PAK7 (human)) was 84%, the residual activity (MAPKAPK2 (human)) was 89% and the residual activity (PAK6 (human)) was 106%. For the same molecule, the residual activity (MAPK3 (human)) was 108%, the residual activity (PLK1 (human)) was 80% and the residual activity (RPS6KA3 KD1 KD2 (human)) was 112%. For the same molecule, the residual activity [3] was 93%, the residual activity (CSNK1D (human)) was 65% and the residual activity (MKNK1 (human)) was 80%. The residual activity (MAPK14 (human)) was 88%.
For `O=S(=O)(NCCNC/C=C/c1ccc(Br)cc1)c1cccc2cnccc12`, the residual activity (MAPK15 (human)) was 93%, the residual activity (GSK3B (human)) was 88% and the residual activity (PIM1 (human)) was 90%. The residual activity (CDK2 CCNA2 (human); ATP 20 µM) was 75%, the residual activity (SRPK1 (human)) was 93% and the residual activity (PRKAA1 or PRKAA2 (rat); [4]) was 73%. The residual activity [1] was 62%, the residual activity (PRKCG (human)) was 55% and the residual activity (PRKCA (human)) was 80%. It also gave a residual activity (AKT2 (human)) of 21%, a residual activity (MELK (human)) of 43% and a residual activity (RPS6KA5 KD1 KD2 (human)) of 9%. It also gave a residual activity (CSK (human)) of 89%, a residual activity (RPS6KA1 KD1 KD2 (human)) of 36% and a residual activity (DYRK1A (human)) of 96%. It also gave a residual activity (PIM3 (human)) of 91%, a residual activity (ROCK2 (human)) of 6% and a residual activity (HIPK2 (human)) of 101%. The residual activity (AURKB (human)) was 70%, the residual activity (CHEK2 (human)) was 69% and the residual activity (MAPKAPK5 (human)) was 89%. The residual activity (PIM2 (human)) was 91%, the residual activity (CaMK1 (human)) was 101% and the residual activity (NEK7 (human)) was 99%. It also gave a residual activity (IKBKB (human)) of 98%, a residual activity (MAPK11 (human)) of 91% and a residual activity (BRSK2 (human)) of 82%. It also gave a residual activity [2] of 14%, a residual activity (PAK7 (human)) of 84% and a residual activity (MAPKAPK2 (human)) of 111%. The residual activity (PAK6 (human)) was 76%, the residual activity (MAPK3 (human)) was 90% and the residual activity (PLK1 (human)) was 95%. It also gave a residual activity (RPS6KA3 KD1 KD2 (human)) of 55%, a residual activity [3] of 11% and a residual activity (MKNK1 (human)) of 90%. The residual activity (MAPK14 (human)) was 99%.
